Consider seven compounds from patent publication US7722858B2, “Prevention and treatment of atherosclerosis by reducing carbamylation of LDL or the effects of carbamylated LDL” (Board of Trustees of the University of Arkansas, priority 2001, dated 2010).

Structures are written as SMILES. “Also recorded” adds a separate entry of the source.

One assay has as its system lens protein. The settings on record: cited from earlier work.
The next assay relates to carbamylation of LDL. Put plainly: In vitro inhibition of LDL carbamylation by potassium cyanate. The settings on record: molar ratios of 1:1 to 16:1 (L-lysine:KOCN). It is filed as biochemical, human. Here is the method:
CLDL (cLDL) was produced by chemical modification of nLDL. Native LDL was incubated under sterile conditions with potassium cyanate (Aldrich; Milwaukee, Wis.) (20 mg KOCN/mg nLDL) at 35° C. for 4 hours. Salt was removed by excessive dialysis against 0.15 M NaCl, 0.01% EDTA, pH 7.0 at 4° C. for 48 hours under sterile conditions. To obtain cLDL carbamylated to different degrees, various incubation periods, from 5 to 300 min, were used.
Assessment of carbamylation was made (a) on the basis of relative electrophoretic mobility in agarose gel, and (b) by the homocitrulline assay as described by Trepanier et al.. Briefly, 25 μg of LDL protein in PBS, pH 7.4 (50 μl volume) was incubated with 2 μg proteinase K and 1% SDS (v:v) at 37° C. for 2 hours. Then 250 μl of urea-nitrogen reagent (0.83 M sulfuric acid, 1.13 M orthophosphoric acid, 0.55 mM thiosemicarbazide, 2.6 mM cadmium sulfate), 50 μl 3% diacetyl monoxime in water was added and the mixture was incubated at 97° C. for 30 min. Samples were transferred into a 96-well plate and absorption of chromogen(s) was recorded at 530 nm. Homocitrulline (carbamyl lysine) standard curves (0-30 nmol) were generated using serial dilutions of a stock solution (200 μM) in PBS, pH 7.4. Results are expressed as nmol homocitrulline/mg LDL protein).

Another assay has as its system HCAECs. The experiment in a line: Flow cytometry of LDL-treated cells double-labeled with BrdU and 7-AAD. It is filed as cell-based, human. Here is the method: Flow cytometry of LDL-treated cells double-labeled with BrdU and 7-AAD (marker of total DNA) was performed to detect whether BrdU incorporation is linked to DNA synthesis or DNA repair, and whether mitosis is suppressed, and thus accumulation of polyploid cells is associated with the increase of BrdU incorporation.

The subject of the next assay is rat lens. The settings on record: rat lens incubated in cyanate; cited from earlier work.

`O=C(O)COc1nn(Cc2ccccc2)c2ccccc12` [Bendazac]: in the assay with lens protein (present with cyanate), the “carbamylation of lens protein” value is reported as “inhibits the carbamylation of lens protein”. In the case of `N=C(N)NCCC[C@H](N)C(=O)O` [L-arginine], the “inhibition of carbamylation of LDL in vitro” value (“inhibition” for short) in the assay with carbamylation of LDL is recorded as “can inhibit carbamylation of LDL in vitro”.

Turning to `NCC(=O)O` [L-glycine], in the assay with carbamylation of LDL, the “inhibition” value is “can inhibit carbamylation of LDL in vitro”.

Regarding `NCCCC[C@H](N)C(=O)O` [L-lysine], in the assay with carbamylation of LDL, the “inhibition” value was “can inhibit carbamylation of LDL in vitro; also recorded: inhibition of LDL carbamylation”.

As for `N#C[O-].[K+]` [Potassium cyanate, potassium cyanate], in the assay on HCAECs, the “induction of proliferation or DNA synthesis” value is “did not induce proliferation or DNA synthesis”. For the compound `CC(=O)Oc1ccccc1C(=O)O` [aspirin], the “cyanate-induced increase in phase separation temperature” value in the assay on rat lens is listed as “aspirin-preventable increase in phase separation temperature”. Turning to `CC(C)Cc1ccc(C(C)C(=O)O)cc1` (stereo not shown) [ibuprofen], the “binding of cyanate to lens protein” value with lens protein was “dose-dependent decrease”.
